Test results taken from patent US20240299566A1, “POLY-ARGININE DERIVATIVES FOR ENHANCING BRAIN-DERIVED GROWTH FACTOR TO MITIGATE NEUROLOGICAL DISORDERS” (priority 2021, published 2024).
“Also recorded” adds a separate entry of the source.

How the values were obtained:
[1] = system: Angelman syndrome (AS) mice; experiment: Hippocampal LTP (field EPSP slopes, CA1) in Angelman syndrome mice after IP injection; assay type: in vivo; conditions: for LTP (field EPSP slopes, CA1 region of hippocampus): IP, AS mice
Procedure: Field EPSP slopes were recorded in the CA1 region of the hippocampus.
Electrophysiological recordings and data analysis were performed as described in Cao et al., 2013 (Impairment of TrkB-PSD-95 Signaling in Angelman Syndrome. PLoS Biol 11, e1001478 (2013). Coronal brain slices (350 μm) were maintained in an interface chamber containing oxygenated artificial cerebral spinal fluid (ACSF) for at least 1 h before use. Slices were transferred to a submersion recording chamber perfused with oxygenated ACSF at 2 ml/min. Extracellular postsynaptic field potentials (fEPSPs) were performed by placing electrodes (borosilicate glass, resistance <1 MΩ) in the CA1 stratum radiatum and synaptic responses elicited by stimulation of the Schaffer Collaterals using concentric bipolar stimulation electrodes and recorded using an AxoClamp2B amplifier (Axon instruments) and EX1 differential amplifier (Dagan), and digitized at 10 kHz. Data were acquired using Igor Pro (Wave Metrics) and Neuromatic (neuromatic.thinkrandom.com). LTP was induced by high frequency stimulation (2×HFS for is at 100 Hz separated by 20 s) of Schaffer collateral afferents and LTP values are expressed as percentage of baseline±SEM. Paired two-tailed t-tests were used for statistical analysis.

[2] = system: repeated corticosterone-injected mice; experiment: Forced Swim Test in repeated corticosterone-injected mice; assay type: in vivo; conditions: single i.v. injection 1 mg/kg, day 7 after injection
Description: FIG. 3A is a scatter plot showing immobility time of control mice or depressed mice during a Forced Swim Test, 7 days after injection of vehicle or Compounds of Formula (IV), where *P<0.001 vs. control mice.
(§1) Preclinical identification of fast-onset antidepressants requires animal models that can accurately predict the delay to therapeutic onset. […] This has led to the approval of SPRAVATO® (esketamine), a ketamine-derived drug which is the first antidepressant with a novel mechanism of action approved in decades. The neurobiological changes believed to underlie depressive symptomatology have been reliably characterized using exogenous corticosterone (CORT) administration e.g. dendritic atrophy in hippocampal pyramidal cells with loss of CA3 and CA1 apical dendrites. […] Mice then received a single injection of compounds of Formula (IV) (1 mg/kg) or Vehicle (0.9% NaCl). Day 7 after injection of compounds of Formula (IV), immobility times in the FST and TST were tested as described. #P<0.001 vs. control mice.

IL-1β = experiment: Inflammatory cytokine expression in CORT behavioral model of depression; assay type: in vivo, mice; conditions: acute injection, FIG. 4A
Description: A major breakthrough in our understanding of the mechanistic basis for depression is the “inflammatory hypothesis”.

microglia = experiment: Microglia morphology in CORT mouse model of depression; assay type: in vivo, mice; conditions: acute injection, FIG. 4C
Description: Microglial cells are capable of influencing complex moods, synaptic plasticity, neurogenesis, and memory. […] Classically activated, pro-inflammatory microglia phenotypes (termed M1-like), often release inflammatory mediators that result in severely injured tissue. Alternatively activated, anti-inflammatory microglial phenotypes (termed M2-like) are neuroprotective in function and promote the survival of new neurons. In a healthy brain, most microglial cells are in a resting state. The morphology of resting microglia is poly-branched with many fine branches and a smaller cytoplasm, compared to active microglia that display an increased soma size and more irregular shape of their cell body. Activation of microglia results in the release of pro-inflammatory factors, namely IL-1β, TNFα and IL-6.

[3] = system: repeated corticosterone-injected mice; experiment: Tail Suspension Test in repeated corticosterone-injected mice; assay type: in vivo; conditions: single i.v. injection 1 mg/kg, day 7 after injection
Description: FIG. 3B is a scatter plot showing immobility time of control mice or depressed mice during a Tail Suspension Test, 7 days after injection of vehicle or Compounds of Formula (IV), *P<0.001 vs. control mice.
as §1

[4] = system: SH-SY5Y cells transfected with HA-TrkB; experiment: BDNF-stimulated TrkB signaling, western blot with phospho-specific antibodies; assay type: cell-based; conditions: 1 μM, FIG. 1D
Procedure: FIG. 1A depicts western blots probed with phospho-specific antibodies against p-MTOR, p-Erk and p-S6 from SHSY5Y cells transfected with TrkB and stimulated with 30 ng/ml BDNF. Blots depict expression before (0′), or 15 or 60 minutes (15′ and 60′) after BDNF stimulation.
SH-SY5Y cells were transfected with HA-TrkB. Following transfection, cells were starved in MEM for 3 hours. In the last 90 minutes of starvation, cells were treated with compounds of Formula (IV) or CN-2097 (shown below) at 1 μM and 5 μM. In the last hour of starvation, cells were stimulated with BDNF. Western blots probed with phospho-specific antibodies against p-MTOR, p-Erk and p-S6 (FIG. 1A).

ischemic episode = experiment: Proposed treatment of patient with ischemia; assay type: in vivo, human; conditions: 50 mg/Kg i.v. within 2 hours of onset; outcome within 48 hours
Procedure: A person presents with an ischemic episode resulting sudden numbness the face, and left arm, confusion, and trouble speaking. […] Doses of from about 1 to about 100 mg/Kg will be used.

CC(C)C(NC(=O)C1CCC(=O)NCCC(=O)NCCCCC(NC(=O)C(CCC(N)=O)NC(=O)C(NC(=O)C(Cc2c[nH]c3ccccc23)NC(=O)C2CCCN2C(=O)C2CCCN2C(=O)C(Cc2ccccc2)NC(=O)C(CO)NC(=O)CNC(=O)C(N)CSSCC(N)C(=O)NC(CCCNC(=N)N)C(=O)NC(CCCNC(=N)N)C(=O)NC(CCCNC(=N)N)C(=O)NC(CCCNC(=N)N)C(=O)NC(CCCNC(=N)N)C(=O)NC(CCCNC(=N)N)C(=O)NC(CCCNC(=N)N)C(N)=O)C(C)C)C(=O)NC(C(C)O)C(=O)N1)C(=O)O (centres unmarked) [Formula (IV)]
restoration of hippocampal LTP, dose compared to CN2097 ([1]; Angelman mouse model, FIG. 2A-2C): restored hippocampal LTP in an Angelman mouse model at a significantly lower dose as compared to CN2097 | LTP (field EPSP slopes, CA1 region of hippocampus) ([1]; 0.5 mg/kg): resulted in LTP; also recorded: LTP was observed | LTP (field EPSP slopes, CA1 region of hippocampus) ([1]; 1 mg/kg): LTP was observed | LTP (field EPSP slopes, CA1 region of hippocampus) ([1]; 2 mg/kg): LTP was observed | immobility time in Forced Swim Test [2]: reduced the duration of immobility time | IL-1β expression (IL-1β): blocks the increased expression of IL-1β | microglia phenotype (microglia): switches microglia from an active form (CORT depression) to the resting phenotype | immobility time in Tail Suspension Test [3]: reduced the duration of immobility time | p-S6 activity ([4]; BDNF stimulation): enhanced p-S6 activity | dose enhancing p-S6 activity, fold lower compared to CN2097 [4]: 5 fold | patient outcome after ischemic episode (ischemic episode): recovers without significant brain damage
